Residues, ends and D or L forms follow the SMILES beside them.
Tested on: CD8^+ T cells from HIV^+ subjects
Assay: FACS-based intracellular staining (ICS) for cytolysin (perforin) and cytotoxins (GrzA, GrzB) in CD8+ T cells
Details: HIV+ human subjects; for Cyto: CD8+ T-cell cytotoxins (perforin, GrzA & B), frequency of responders: FIV epitope peptide; for Cyto (cytolysin/cytotoxin production), frequency of responders: FIV peptides; for CyCD8: CD8+ T-cell cytolysin/cytotoxins (perforin, GrzA & B), frequency of responders: HIV-1 epitope peptide, threshold ≥0.2%
Method: The overlapping peptide pools of FIV and HIV-1 structural and enzyme proteins were used to stimulate the […] (PBMC) and the T cells from HIV^+ subjects as previously described for epitope mapping of HIV-1 and FIV p24 and reverse transcriptase (RT) (Sanou et al., 2013; Roff et al., 2015). The individual peptides in those peptide pools with positive responses to either interferon-γ (IFNγ) production and/or T-cell proliferation were determined with IFNγ ELISpot analysis and CFSE-based CD3^+CD4^+ and CD3^+CD8^+ T-cell proliferation analyses followed by the FACS-based intracellular staining (ICS) for cytolysin (perforin) and cytotoxin (granzyme A [GrzA] and GrzB) (Sanou et al., 2013; Roff et al., 2015). Besides viral p24 and RT proteins, the identical approach was used to identify anti-HIV/FIV T-cell epitopes on viral matrix (MA), nucleocapsid (NC), protease (PR), RNAase, integrase (IN), surface envelope (SU Env), and transmembrane envelope (TM Env) (FIG. 12).
Since our goal is to develop HIV vaccine for human use, the HIV peptides (Table 10) counterpart of the cross-reactive FIV peptides shown in Table 9 were tested with PBMC and T cells from HIV^+ subjects. The immune functions analyzed were human IFNγ production by ELISpot, cytolysin/cytotoxin production by ICS, and CFSE-based proliferation of CD3^+CD4^+ and CD3^+CD8^+ T cells from HIV^+ subjects (Table 10, the first set of results). In addition, the Los Alamos National Laboratories (LANL) database was used to identify the HLA allele(s) of the HIV epitope sequence with CTL activity that can exist within the sequence of the conserved counterpart HIV peptide (Table 9, LANL CTL). The bold HLA class-I supertypes and the bold 2-digit alleles are those on the “Optimal CD8^+ CTL Epitopes” list and those without bold are alleles for potential CTL epitope. […] The HLA class II such as HLA-DRB1 has yet to be fully classified into supertypes, and therefore the 4-digit resolution nomenclatures for the HLA-DRB1 alleles are shown.
The threshold for positive IFNγ and IL2 ELISpot responses is ≥50 spot-forming units (SFU) per 10^6 PBMC. The threshold for CFSE-based CD4^+ and CD8^+ T-cell proliferation is ≥2% CD4^+ T-cell CFSE^low or CD8^+ T-cell CFSE^low. The threshold of FACS-based intracellular cytokine staining (ICS) is ≥0.2%. […] The nine FIV peptides in black were used in the current MAP vaccine trial, whereas the 13 peptides in blue were not used. […] The MAPs and their corresponding peptide(s) were also tested for their ability to enhance or suppress in vitro FIV infection of feline PBMC (E/S of peptides and E/S of MAP).
The counterpart HIV-1 peptides of the FIV peptides were also tested for immunogenicity using PBMC and T cells from HIV^+ human subjects. […] The HRT7-1 and HRT7-2 were also tested with cells from HIV^+ subjects on ART. The threshold for positive IFNγ ELISpot response is ≥75 spot-forming units (SFU) per 10^6 PBMC. The threshold for CFSE-based CD4^+ (CD4^+ T) and CD8^+ (CD8^+ T) T-cell proliferation is ≥2% CD4^+ T-cell CFSE^low or CD8^+ T-cell CFSE^low. The threshold of intracellular cytokine staining (ICS) of FACS-based cytolysin (perforin) and cytotoxins (granzymes A and B) in CD4^+ T cells (CyCD4) and CD8^+ T cells (CyCD8) is ≥0.2%. […] The nine HIV-1 peptides in black are the counterpart FIV peptides used in the current MAP vaccine trial, whereas the 13 peptides in blue were not.

| SMILES | Cyto: CD8+ T-cell cytotoxins (perforin, GrzA & B), frequency of responders | Cyto (cytolysin/cytotoxin production), frequency of responders | CyCD8: CD8+ T-cell cytolysin/cytotoxins (perforin, GrzA & B), frequency of responders |
| --- | --- | --- | --- |
| CC(C)C[C@H](NC(=O)[C@@H](NC(=O)[C@H](Cc1c[nH]c2ccccc12)NC(=O)CNC(=O)[C@H](CCC(N)=O)NC(=O)[C@@H]1CCCN1C(=O)[C@H](CC(C)C)NC(=O)[C@H](CO)NC(=O)[C@H](CS)NC(=O)[C@H](Cc1c[nH]c2ccccc12)NC(=O)[C@@H](NC(=O)[C@H](Cc1ccc(O)cc1)NC(=O)[C@H](CCCNC(=N)N)NC(=O)[C@H](CCCNC(=N)N)NC(=O)CN)C(C)C)C(C)C)C(=O)O [FRT7-1] (H-GRRYVWCSLPQGWVL-OH) | +++ (41%-54% (+++)) | +++ (40.1%-54% (+++)) |  |
| CC(C)C[C@H](NC(=O)[C@H](Cc1ccc(O)cc1)NC(=O)[C@H](CC(C)C)NC(=O)[C@H](CCCCN)NC(=O)[C@@H](NC(=O)[C@H](CCC(=O)O)NC(=O)[C@H](C)NC(=O)[C@@H](NC(=O)[C@H](CC(N)=O)NC(=O)[C@H](CCC(N)=O)NC(=O)[C@H](CCC(=O)O)NC(=O)[C@H](CCC(N)=O)NC(=O)[C@@H](N)CC(=O)O)[C@@H](C)O)C(C)C)C(=O)N[C@@H](CCCCN)C(=O)O [Fp14-1] (H-DQEQNTAEVKLYLK-OH) | +++ (41%-54% (+++)) | +++ (40.1%-54% (+++)) |  |
| CC[C@H](C)[C@H](N)C(=O)N1CCC[C@H]1C(=O)N[C@H](C(=O)NCC(=O)N[C@@H](CCC(=O)O)C(=O)N[C@H](C(=O)N[C@@H](Cc1ccc(O)cc1)C(=O)N[C@@H](CCCCN)C(=O)N[C@@H](CCCNC(=N)N)C(=O)N[C@@H](Cc1c[nH]c2ccccc12)C(=O)N[C@H](C(=O)N[C@H](C(=O)N[C@@H](CC(C)C)C(=O)NCC(=O)O)[C@@H](C)CC)[C@@H](C)CC)[C@@H](C)CC)C(C)C [Hp9-3 (10-3)] |  |  | +++ (40.1%-54% (+++)) |
| CC[C@H](C)[C@H](NC(=O)[C@H](CCCCN)NC(=O)[C@@H](NC(=O)[C@@H](NC(=O)[C@@H](NC(=O)[C@H](CC(C)C)NC(=O)[C@@H]1CCCN1C(=O)[C@H](CCCNC(=N)N)NC(=O)[C@H](CCC(N)=O)NC(=O)[C@H](Cc1c[nH]c2ccccc12)NC(=O)[C@H](CC(C)C)NC(=O)[C@@H](N)[C@@H](C)O)C(C)C)[C@@H](C)O)[C@@H](C)CC)C(=O)NCC(=O)NCC(=O)O [HPR1] |  |  | − (0%-1.4% (−)) |
| CC[C@H](C)[C@H](NC(=O)[C@@H](N)CCCCN)C(=O)N[C@@H](CCCNC(=N)N)C(=O)N[C@@H](CC(C)C)C(=O)N[C@@H](CCCNC(=N)N)C(=O)N1CCC[C@H]1C(=O)NCC(=O)NCC(=O)N[C@@H](CCCCN)C(=O)N[C@@H](CCCCN)C(=O)N[C@@H](CCCCN)C(=O)N[C@@H](Cc1ccc(O)cc1)C(=O)O [HMA1] |  |  | − (0%-1.4% (−)) |
| CC[C@H](C)[C@H](N)C(=O)N[C@@H](CC(=O)O)C(=O)N[C@@H](Cc1ccccc1)C(=O)N[C@@H](CCCNC(=N)N)C(=O)N[C@H](C(=O)N[C@@H](CC(C)C)C(=O)N[C@@H](CC(N)=O)C(=O)N[C@@H](CCCCN)C(=O)N[C@@H](CC(C)C)C(=O)N[C@H](C(=O)N[C@@H](CC(=O)O)C(=O)N[C@@H](CCCCN)C(=O)NCC(=O)N[C@@H](C)C(=O)O)[C@@H](C)O)C(C)C [FRT3-5] (H-IDFRVLNKLTDKGA-OH; N-terminus and C-terminus assumed) | +++ (41%-54% (+++)) |  |  |
| CC[C@H](C)[C@H](NC(=O)[C@H](CO)NC(=O)[C@H](CC(C)C)NC(=O)[C@H](CO)NC(=O)[C@H](CCC(N)=O)NC(=O)[C@H](CCCCN)NC(=O)[C@H](CC(C)C)NC(=O)[C@H](Cc1ccc(O)cc1)NC(=O)[C@H](CC(C)C)NC(=O)[C@H](CCCCN)NC(=O)[C@@H](NC(=O)[C@H](CCC(=O)O)NC(=O)[C@H](C)N)C(C)C)C(=O)N[C@@H](C)C(=O)O [Fp14-3] (H-AEVKLYLKQSLSIA-OH; N-terminus and C-terminus assumed) | ++++ (>54% (++++)) | ++++ (>54% (++++)) |  |
| CC[C@H](C)[C@H](NC(=O)[C@H](CCCNC(=N)N)NC(=O)[C@H](CC(C)C)NC(=O)[C@H](CO)NC(=O)[C@H](CCC(=O)O)NC(=O)[C@H](CCC(N)=O)NC(=O)[C@H](CCC(N)=O)NC(=O)[C@H](CCSC)NC(=O)[C@H](Cc1ccc(O)cc1)NC(=O)[C@H](CC(C)C)NC(=O)[C@H](CCC(=O)O)NC(=O)[C@@H](N)Cc1ccc(O)cc1)C(=O)N[C@@H](CCC(N)=O)C(=O)N[C@@H](CC(=O)O)C(=O)N[C@@H](CCCNC(=N)N)C(=O)O [FIN7-1] (H-YELYMQQESLRIQDR-OH; N-terminus and C-terminus assumed) | ++ (26%-40% (++)) | ++ (25.1%-40% (++)) |  |
| CSCC[C@H](NC(=O)[C@H](CCCNC(=N)N)NC(=O)[C@H](C)NC(=O)[C@@H]1CCCN1C(=O)[C@H](C)NC(=O)[C@@H](N)Cc1ccccc1)C(=O)N[C@@H](CCC(N)=O)C(=O)N[C@@H](CS)C(=O)N[C@@H](CCCNC(=N)N)C(=O)N[C@@H](C)C(=O)N[C@@H](Cc1c[nH]c2ccccc12)C(=O)N[C@@H](Cc1ccc(O)cc1)C(=O)N[C@@H](CC(C)C)C(=O)N[C@@H](CCC(=O)O)C(=O)N[C@@H](C)C(=O)O [Fp9-3] (H-FAPARMQCRAWYLEA-OH) | +++ (41%-54% (+++)) | +++ (40.1%-54% (+++)) |  |
| CC[C@H](C)[C@H](NC(=O)[C@H](CO)NC(=O)[C@H](CC(C)C)NC(=O)[C@H](CO)NC(=O)[C@H](CCC(N)=O)NC(=O)[C@H](CCCCN)NC(=O)[C@H](CC(C)C)NC(=O)[C@H](Cc1ccc(O)cc1)NC(=O)[C@H](CC(C)C)NC(=O)[C@@H](N)CCCCN)C(=O)N[C@@H](C)C(=O)N[C@@H](CC(N)=O)C(=O)N[C@@H](C)C(=O)O [Fp14-4] (H-KLYLKQSLSIANA-OH; N-terminus and C-terminus assumed) | ++++ (>54% (++++)) | ++++ (>54% (++++)) |  |
| CC[C@H](C)[C@H](NC(=O)[C@H](CC(C)C)NC(=O)[C@@H]1CCCN1C(=O)[C@H](CO)NC(=O)[C@H](CC(C)C)NC(=O)[C@@H](NC(=O)[C@H](Cc1c[nH]c2ccccc12)NC(=O)CNC(=O)[C@H](CCC(N)=O)NC(=O)[C@@H]1CCCN1C(=O)[C@H](CC(C)C)NC(=O)[C@H](CO)NC(=O)[C@@H](N)CS)C(C)C)C(=O)N[C@@H](Cc1ccc(O)cc1)C(=O)O [FRT7-2] (H-CSLPQGWVLSPLIY-OH) | ++++ (>54% (++++)) | ++++ (>54% (++++)) |  |
| CC(C)C[C@H](NC(=O)[C@@H](NC(=O)[C@H](C)NC(=O)[C@@H](NC(=O)[C@@H](NC(=O)[C@H](CC(N)=O)NC(=O)[C@H](Cc1ccc(O)cc1)NC(=O)[C@H](CC(C)C)NC(=O)[C@H](CO)NC(=O)[C@H](CCCNC(=N)N)NC(=O)[C@H](CC(C)C)NC(=O)[C@H](CCC(=O)O)NC(=O)[C@H](CCC(=O)O)NC(=O)[C@H](CO)NC(=O)CN)[C@@H](C)O)C(C)C)[C@@H](C)O)C(=O)O [HMA2] |  |  | − (0%-1.4% (−)) |

Source: US10758609B2, “Cross-reactive T-cell epitopes of HIV, SIV, and FIV for vaccines in humans and cats” (priority 2015, dated 2020)
